The test system of test [1] is Bacillus cereus. Description: Antibacterial activity against Bacillus cereus assessed as growth inhibition measured after 24 to 48 hrs by agar disk diffusion method. The class given is functional.
The test system of test [2] is Staphylococcus epidermidis. Description: Antibacterial activity against Staphylococcus epidermidis assessed as growth inhibition measured after 24 to 48 hrs by agar disk diffusion method. It is filed as functional. (Agar diffusion results depend on both activity and mobility in agar.)
Test [3] deals with Staphylococcus aureus. In words: Antibacterial activity against Staphylococcus aureus assessed as growth inhibition measured after 24 to 48 hrs by agar disk diffusion method. It is filed as functional.
For a further test, the system named is Klebsiella pneumoniae. In words: Antibacterial activity against Klebsiella pneumoniae assessed as growth inhibition measured after 24 to 48 hrs by agar disk diffusion method. It is filed as functional, organism-based.
For a further test, the system named is Pseudomonas aeruginosa. Description: Antibacterial activity against Pseudomonas aeruginosa assessed as growth inhibition measured after 24 to 48 hrs by agar disk diffusion method. It is filed as functional, organism-based.
For test [4], the system named is Candida albicans. Description: Antifungal activity against Candida albicans assessed as growth inhibition measured after 24 to 48 hrs by agar disk diffusion method. It is filed as functional, organism-based.
Test [5] deals with Bacillus cereus. In words: Antibacterial activity against Bacillus cereus assessed as growth inhibition measured after 24 to 48 hrs by agar disk diffusion method in presence of 24.4 Gy gamma-irradiation. It is filed as functional.
The test system of test [6] is Bacillus cereus. Description: Antibacterial activity against Bacillus cereus assessed as growth inhibition measured after 24 to 48 hrs by agar disk diffusion method in absence of 24.4 Gy gamma-irradiation. It is filed as functional.
Test [7] relates to Staphylococcus epidermidis. Description: Antibacterial activity against Staphylococcus epidermidis assessed as growth inhibition measured after 24 to 48 hrs by agar disk diffusion method in presence of 24.4 Gy gamma-irradiation. It is filed as functional.
Test [8] has as its system Staphylococcus epidermidis. In words: Antibacterial activity against Staphylococcus epidermidis assessed as growth inhibition measured after 24 to 48 hrs by agar disk diffusion method in absence of 24.4 Gy gamma-irradiation. It is filed as functional.
Test [9] relates to Staphylococcus aureus. In words: Antibacterial activity against Staphylococcus aureus assessed as growth inhibition measured after 24 to 48 hrs by agar disk diffusion method in presence of 24.4 Gy gamma-irradiation. The class given is functional.
For test [10], the system named is Staphylococcus aureus. Description: Antibacterial activity against Staphylococcus aureus assessed as growth inhibition measured after 24 to 48 hrs by agar disk diffusion method in absence of 24.4 Gy gamma-irradiation. It is filed as functional.
For test [11], the system named is Candida albicans. In words: Antifungal activity against Candida albicans assessed as growth inhibition at 30 ug/disk measured after 24 to 48 hrs by agar disk diffusion method. It is filed as functional, organism-based.
The test system of test [12] is Bacillus cereus. Description: Antibacterial activity against Bacillus cereus assessed as aggregation of cellular material at poles at MIC by scanning electron microscopic analysis. The class given is functional, organism-based.
The subject of test [13] is Bacillus cereus. Description: Antibacterial activity against Bacillus cereus assessed as septum disappearance at MIC by scanning electron microscopic analysis. The class given is functional, organism-based.
Test [14] concerns Bacillus cereus. In words: Antibacterial activity against Bacillus cereus assessed as shortening of cell surface at MIC by scanning electron microscopic analysis. It is filed as functional, organism-based.
Test [15] deals with Bacillus cereus. Description: Antibacterial activity against Bacillus cereus assessed as elongation of cell surface at MIC by scanning electron microscopic analysis. It is filed as functional, organism-based.
Test [16] deals with Staphylococcus aureus. In words: Antibacterial activity against Staphylococcus aureus assessed as elongation of cell surface at MIC by scanning electron microscopic analysis in presence of 24.4 Gy gamma-irradiation. The class given is functional, organism-based.
In test [17] the test system is Staphylococcus aureus. In words: Antibacterial activity against Staphylococcus aureus assessed as septum disappearance at MIC by scanning electron microscopic analysis. It is filed as functional, organism-based.
Test [18] deals with Staphylococcus aureus. In words: Antibacterial activity against Staphylococcus aureus assessed as deformity of cell surface at MIC by scanning electron microscopic analysis in presence of 24.4 Gy gamma-irradiation. The class given is functional, organism-based.
In test [19] the test system is Bacillus cereus. Description: Antibacterial activity against Bacillus cereus assessed as growth inhibition measured for 24 hrs by agar streak dilution method in absence of 24.4 Gy gamma-irradiation. The following applies: light or radiation study. It is filed as functional.
In test [20] the test system is Staphylococcus aureus. In words: Antibacterial activity against Staphylococcus aureus assessed as growth inhibition measured for 24 hrs by agar streak dilution method in presence of 24.4 Gy gamma-irradiation. The class given is functional. Particulars: light or radiation study.
Test [21] concerns Staphylococcus aureus. In words: Antibacterial activity against Staphylococcus aureus assessed as growth inhibition measured for 24 hrs by agar streak dilution method in absence of 24.4 Gy gamma-irradiation. It is filed as functional. The following applies: light or radiation study.
Test [22] relates to Staphylococcus aureus. In words: Antibacterial activity against Staphylococcus aureus assessed as appearance of projected cellular material and membrane blebbing at MIC by scanning electron microscopic analysis. It is filed as functional, organism-based.

These results are taken from ChEMBL document CHEMBL2434952, “Morphological changes of some pathogenic microbial strains induced by novel thiadiazole derivatives” (2013).

In brackets after ≈: the same amount, converted by molar mass. Activity calls are given as the source filed them. The calls are words filed in the database; no cut-off is given here.

With `O=C(CCl)Nc1n[nH]c(=S)s1`, the “inhibition zone (IZ)” value (in the test on Bacillus cereus [1]; in test [2]; with Staphylococcus aureus [3]) was “inactive” throughout. Further, the “growth inhibition (GI)” value with Klebsiella pneumoniae, in the test on Pseudomonas aeruginosa and in the test on Candida albicans [4] was “inactive” in each case.
Consider `NS(=O)(=O)c1ccc(NC(=S)Nc2n[nH]c(=S)s2)cc1`, for which the “inhibition zone (IZ)” value in the test on Bacillus cereus [5] was 10 mm; with Bacillus cereus [6], 7 mm; in test [7], 10 mm; in test [8] it was 6 mm; in the test on Staphylococcus aureus [9] it was 10 mm; with Staphylococcus aureus [10], 10 mm. Further, the “inhibition zone (IZ)” value came out at 7 mm with Bacillus cereus [1] and 9 mm in the test with Staphylococcus aureus [3]. Further, the “inhibition zone (IZ)” value in test [2] is “inactive”. Moreover, the “growth inhibition (GI)” value in the test on Klebsiella pneumoniae, in the test on Pseudomonas aeruginosa and in the test with Candida albicans [4] was “inactive” in each case.
With `O=C(Nc1ccccc1)Sc1nnc(N(C(=O)Nc2ccccc2)C(=O)Nc2ccccc2)s1`, the “inhibition zone (IZ)” value in the test with Bacillus cereus [5] is recorded as 9 mm; with Bacillus cereus [6] it was 7 mm; in test [7] it was 12 mm; in [8], 8 mm; with Staphylococcus aureus [9], 7 mm; in the test with Staphylococcus aureus [10] it was 7 mm. The results for the “inhibition zone (IZ)” value (in the test on Bacillus cereus [1]; in [2]; in the test on Staphylococcus aureus [3]) were 7 mm, 7 mm and 15 mm, respectively. Moreover, the “growth inhibition (GI)” value with Klebsiella pneumoniae, in the test on Pseudomonas aeruginosa and in the test with Candida albicans [4] was “inactive” in each case.
In the case of `O=CN(C=O)c1n[nH]c(=S)s1`, the “inhibition zone (IZ)” value is reported as 20 mm with Bacillus cereus [5]; 13 mm in the test on Bacillus cereus [6]; 13 mm in [7]; 13 mm in test [8]; 16 mm with Staphylococcus aureus [9]; 20 mm in the test with Staphylococcus aureus [10]. Also, the “inhibition zone (IZ)” value turned out to be 22 mm in the test on Bacillus cereus [1], 20 mm in test [2] and 20 mm with Staphylococcus aureus [3]. The “growth inhibition (GI)” value in the test on Klebsiella pneumoniae, with Pseudomonas aeruginosa and in the test with Candida albicans [4] was “inactive” throughout.
Turning to `O=C1CSC(Nc2n[nH]c(=S)s2)=N1`, the “inhibition zone (IZ)” value in the test with Bacillus cereus [5] is reported as 11 mm; in the test on Bacillus cereus [6], 11 mm; in test [7] it was 7 mm; in [8], 7 mm; in the test with Staphylococcus aureus [9] it was 15 mm; with Staphylococcus aureus [10], 12 mm. Also, the figures for the “inhibition zone (IZ)” value (with Bacillus cereus [1]; in [2]; in the test on Staphylococcus aureus [3]) were 9 mm, 7 mm and 10 mm, respectively. Moreover, the “growth inhibition (GI)” value in the test on Klebsiella pneumoniae, in the test with Pseudomonas aeruginosa and in the test with Candida albicans [4] was “inactive” in each case.
Consider `O=C(CNc1n[nH]c(=S)s1)c1ccccc1`, for which the “inhibition zone (IZ)” value in the test with Bacillus cereus [5] was 15 mm; in the test on Bacillus cereus [6], 15 mm; in test [7], 20 mm; in test [8] it was 12 mm; in the test with Staphylococcus aureus [9], 20 mm; in the test on Staphylococcus aureus [10] it was 20 mm. Also, the figures for the “inhibition zone (IZ)” value (in the test on Bacillus cereus [1]; in test [2]; with Staphylococcus aureus [3]) were 18 mm, 15 mm and 20 mm, respectively. Also, the “growth inhibition (GI)” value in the test with Klebsiella pneumoniae, in the test with Pseudomonas aeruginosa and in the test on Candida albicans [4] was “inactive” throughout.
On to `O=C(Nc1ccccc1)Nc1nnc(S)s1`, for which the “inhibition zone (IZ)” value in the test with Bacillus cereus [5] was determined as 9 mm; in the test with Bacillus cereus [6], 7 mm; in [7], 10 mm; in [8], 7 mm; in the test on Staphylococcus aureus [9], 10 mm; in the test on Staphylococcus aureus [10], 7 mm. The “inhibition zone (IZ)” value with Bacillus cereus [1] was 7 mm; in test [2] it was 9 mm; in the test with Staphylococcus aureus [3], 10 mm. In addition, the “growth inhibition (GI)” value in the test on Klebsiella pneumoniae, in the test on Pseudomonas aeruginosa and in the test with Candida albicans [4] was “inactive” throughout.
For `S=c1[nH]nc(/N=C/c2ccccc2Cl)s1`, the “inhibition zone (IZ)” value with Bacillus cereus [5] is reported as 16 mm; in the test with Bacillus cereus [6], 20 mm; in test [7] it was 13 mm; in test [8] it was 13 mm; in the test with Staphylococcus aureus [9], 16 mm; in the test on Staphylococcus aureus [10], 16 mm. Besides, the figures for the “inhibition zone (IZ)” value (in the test with Bacillus cereus [1]; in test [2]; in the test on Staphylococcus aureus [3]) were 22 mm, 12 mm and 20 mm, respectively. The “growth inhibition (GI)” value in the test with Klebsiella pneumoniae, with Pseudomonas aeruginosa and with Candida albicans [4] was “inactive” throughout.
As to `CC(=O)N(C(C)=O)c1n[nH]c(=S)s1`, the “inhibition zone (IZ)” value is recorded as 20 mm with Bacillus cereus [5]; 11 mm in the test with Bacillus cereus [6]; 15 mm in test [7]; 11 mm in test [8]; 17 mm with Staphylococcus aureus [9]; 20 mm in the test on Staphylococcus aureus [10]. Besides, the “inhibition zone (IZ)” value in the test on Bacillus cereus [1] turned out to be 20 mm; in test [2], 13 mm; in the test with Staphylococcus aureus [3], 20 mm. Moreover, the “growth inhibition (GI)” value in the test on Klebsiella pneumoniae, in the test with Pseudomonas aeruginosa and with Candida albicans [4] was “inactive” in each case.
With NYSTATIN, the inhibition zone (IZ) in the test on Candida albicans [11] was 7 mm.
With `N#Cc1c(-c2ccccc2)cn(-c2n[nH]c(=S)s2)c1N`, the outcome in the test on Bacillus cereus [12], with Bacillus cereus [13], with Bacillus cereus [14], with Bacillus cereus [15], in the test with Staphylococcus aureus [16] and in the test with Staphylococcus aureus [17] was Active. For the same compound, the result with Staphylococcus aureus [18] and in the test with Staphylococcus aureus [22] was Active. For the same compound, the figures for the minimal inhibitory concentration (MIC) with Bacillus cereus [19], with Staphylococcus aureus [20] and in the test with Staphylococcus aureus [21] were 250 µg/mL (≈ 835 µM), 250 µg/mL and 125 µg/mL (≈ 418 µM), respectively. Besides, the “inhibition zone (IZ)” value with Bacillus cereus [5] came out at 25 mm; with Bacillus cereus [6], 25 mm; in test [7], 25 mm; in test [8], 12 mm; with Staphylococcus aureus [9], 19 mm; with Staphylococcus aureus [10], 20 mm. Moreover, the “inhibition zone (IZ)” value is reported as 20 mm in the test with Bacillus cereus [1], 17 mm in [2] and 25 mm with Staphylococcus aureus [3]. For the same compound, the “growth inhibition (GI)” value in the test with Klebsiella pneumoniae, in the test with Pseudomonas aeruginosa and in the test on Candida albicans [4] was “inactive” each time.
